# From PubChem BioAssay AID2060328 (Molecular Pharmacology Branch, DTP, NCI, 2025)
# System: MDA-MB-231 multicell spheroids, viability (%T/C)
# Test: Anticancer human tumor MDA-MB-231 cell line growth inhibition [IpAb];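 further: viability read after seven days of drug exposure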;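 on viability, T/C: 100% = DMSO vehicle control viability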
# Conditions: for IC50: curve of first compound; for viability, T/C: stronger effect = lower value
# Outline: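 Multi-cell spheroids of 60% tumour cells, 25% HUVEC and 15% MSC in ultra-low-attachment U-bottom wells, treated with agents combined with ipatasertib or abemaciclib. Half-log ranges top out near clinical Cmax, or 10 microM when Cmax is unknown.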
smiles,measurement,setting,value
C=CCn1c(=O)c2cnc(Nc3ccc(N4CCN(C)CC4)cc3)nc2n1-c1cccc(C(C)(C)O)n1 + CCN1CCN(Cc2ccc(Nc3ncc(F)c(-c4cc(F)c5nc(C)n(C(C)C)c5c4)n3)nc2)CC1,IC50,second compound 0.01 µM,239 nM
same,IC50,second compound 0.0316 µM,208 nM
same,IC50,second compound 0.1 µM,177 nM
same,IC50,second compound 0.316 µM,33.4 nM
same,IC50,second compound 1 µM,325 nM
same,"viability, T/C","second compound 0.01 µM, first compound 0.0316 µM",88.8%
same,"viability, T/C","second compound 0.01 µM, first compound 0.1 µM",85%
same,"viability, T/C","second compound 0.01 µM, first compound 0.316 µM",38.6%
same,"viability, T/C","second compound 0.01 µM, first compound 1 µM",20.3%
same,"viability, T/C","second compound 0.01 µM, first compound 3.16 µM",15.4%
same,"viability, T/C","second compound 0.01 µM, first compound 10 µM",20%
same,"viability, T/C","second compound 0.0316 µM, first compound 0.0316 µM",80.1%
same,"viability, T/C","second compound 0.0316 µM, first compound 0.1 µM",69.3%
same,"viability, T/C","second compound 0.0316 µM, first compound 0.316 µM",38.9%
same,"viability, T/C","second compound 0.0316 µM, first compound 1 µM",23%
same,"viability, T/C","second compound 0.0316 µM, first compound 3.16 µM",17.9%
same,"viability, T/C","second compound 0.0316 µM, first compound 10 µM",20%
same,"viability, T/C","second compound 0.1 µM, first compound 0.0316 µM",59.8%
same,"viability, T/C","second compound 0.1 µM, first compound 0.1 µM",56.8%
same,"viability, T/C","second compound 0.1 µM, first compound 0.316 µM",43.1%
same,"viability, T/C","second compound 0.1 µM, first compound 1 µM",26.1%
same,"viability, T/C","second compound 0.1 µM, first compound 3.16 µM",19.9%
same,"viability, T/C","second compound 0.1 µM, first compound 10 µM",21.2%
same,"viability, T/C","second compound 0.316 µM, first compound 0.0316 µM",47.4%
same,"viability, T/C","second compound 0.316 µM, first compound 0.1 µM",48.7%
same,"viability, T/C","second compound 0.316 µM, first compound 0.316 µM",42.5%
same,"viability, T/C","second compound 0.316 µM, first compound 1 µM",32.9%
same,"viability, T/C","second compound 0.316 µM, first compound 3.16 µM",24.8%
same,"viability, T/C","second compound 0.316 µM, first compound 10 µM",26.4%
same,"viability, T/C","second compound 1 µM, first compound 0.0316 µM",51.8%
same,"viability, T/C","second compound 1 µM, first compound 0.1 µM",51.7%
same,"viability, T/C","second compound 1 µM, first compound 0.316 µM",50.5%
same,"viability, T/C","second compound 1 µM, first compound 1 µM",48.5%
same,"viability, T/C","second compound 1 µM, first compound 3.16 µM",41%
same,"viability, T/C","second compound 1 µM, first compound 10 µM",36.5%
